Experimental findings from ChEMBL document CHEMBL1136052, “Identification of novel cyclooxygenase-2 selective inhibitors using pharmacophore models” (J Med Chem, 2002) are described below.

Each structure is given as a SMILES string.

The inhibition is the change of the read-out against control, counted positive when it falls. Read a low inhibition as little suppression. By IC50 is commonly meant the concentration needed to halve the response being measured.

Experiment [1] deals with Prostaglandin G/H synthase 1 (Homo sapiens) (UniProt P23219). Nature of the experiment: Percent inhibition of arachidonic acid induced TXB2 generation in isolated human platelets (Prostaglandin G/H synthase 1 cell assay) at 10 uM. It is filed as functional.
Sequence of Prostaglandin G/H synthase 1 (Homo sapiens) (P23219 whole entry): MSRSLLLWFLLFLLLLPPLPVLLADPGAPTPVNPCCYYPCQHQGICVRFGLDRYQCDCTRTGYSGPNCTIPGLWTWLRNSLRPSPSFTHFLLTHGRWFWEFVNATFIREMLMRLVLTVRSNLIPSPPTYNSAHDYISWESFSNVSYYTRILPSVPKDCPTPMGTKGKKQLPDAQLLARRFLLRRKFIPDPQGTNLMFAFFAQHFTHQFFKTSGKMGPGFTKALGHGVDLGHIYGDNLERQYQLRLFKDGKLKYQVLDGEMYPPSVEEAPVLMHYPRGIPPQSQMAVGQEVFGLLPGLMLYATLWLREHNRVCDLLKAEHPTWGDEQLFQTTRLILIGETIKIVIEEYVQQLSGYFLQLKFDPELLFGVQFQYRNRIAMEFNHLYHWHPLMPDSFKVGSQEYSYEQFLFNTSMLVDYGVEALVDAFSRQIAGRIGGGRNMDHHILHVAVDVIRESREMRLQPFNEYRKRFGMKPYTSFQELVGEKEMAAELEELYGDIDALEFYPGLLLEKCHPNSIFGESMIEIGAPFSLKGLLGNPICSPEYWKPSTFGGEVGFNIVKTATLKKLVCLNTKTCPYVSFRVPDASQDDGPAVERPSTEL
Experiment [2] has the same target. To be noted: 100 uM.
Experiment [3] has the same target. Description: Percent inhibition of arachidonic acid induced TXB2 generation in isolated human platelets (Prostaglandin G/H synthase 1 cell assay) at 10 uM. It is filed as functional.
Experiment [4] has as its target T1, Prostaglandin G/H synthase 2 (Homo sapiens) (UniProt P35354).
T1 sequence (whole entry): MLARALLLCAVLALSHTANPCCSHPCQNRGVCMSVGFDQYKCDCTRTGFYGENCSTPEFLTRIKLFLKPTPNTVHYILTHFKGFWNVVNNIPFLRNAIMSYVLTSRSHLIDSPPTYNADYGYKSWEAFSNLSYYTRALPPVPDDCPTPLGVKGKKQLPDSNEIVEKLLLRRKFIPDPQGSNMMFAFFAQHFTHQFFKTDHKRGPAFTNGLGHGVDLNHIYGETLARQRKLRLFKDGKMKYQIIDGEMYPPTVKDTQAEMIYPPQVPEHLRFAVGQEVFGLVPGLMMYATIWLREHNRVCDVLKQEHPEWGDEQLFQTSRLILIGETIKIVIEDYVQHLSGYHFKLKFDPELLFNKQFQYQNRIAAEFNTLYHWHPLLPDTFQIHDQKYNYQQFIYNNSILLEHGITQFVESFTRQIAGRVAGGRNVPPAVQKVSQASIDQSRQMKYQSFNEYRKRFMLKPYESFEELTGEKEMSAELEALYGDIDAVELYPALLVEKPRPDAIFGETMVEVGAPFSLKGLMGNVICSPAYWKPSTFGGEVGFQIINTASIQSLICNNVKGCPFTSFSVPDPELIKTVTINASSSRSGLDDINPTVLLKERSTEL
Description: % Inhibition of Prostaglandin G/H synthase 2 activity was evaluated at 10 uM concentration, in human whole blood as LPS-induced PGE-2 generation. Format: functional, tissue-based.

For experiment [5], the target named is T2, Prostaglandin G/H synthase 2 (Homo sapiens, UniProt P35354).
T2 sequence (P35354 whole entry): T1 sequence (whole entry)
Description: Inhibition of PGE-2 generation in LPS-stimulated human monocytes (Prostaglandin G/H synthase 2 assay).

Molecule `CS(=O)(=O)c1ccc2c(c1)cc(C(=O)O)n2Cc1ccc(Cl)cc1` came in with an inhibition in experiment [1] of 37%. `COC(=O)c1cc2cc(S(C)(=O)=O)ccc2n1Cc1ccc(OC)cc1`: the inhibition in experiment [2] came to 54%; in experiment [1] it was 15%. With `COC(=O)c1cc2cc(S(C)(=O)=O)ccc2n1Cc1ccc(Cl)cc1`, the inhibition was found to be 25% in experiment [2] and 19% in experiment [1].

Take `COC(=O)c1cc2cc(S(C)(=O)=O)ccc2n1Cc1ccc(Br)cc1`: the inhibition in experiment [1] is 25%. In experiment [3], `COC(=O)c1cc2cc(S(C)(=O)=O)ccc2n1C(=O)c1ccc(Br)cc1` came in with an inhibition of 15%.

Take `COC(=O)c1cc2cc(S(C)(=O)=O)ccc2n1C(=O)c1ccc(Cl)cc1`: the results for the inhibition in experiment [4] and in experiment [3] were less than 25% and 16%, respectively. In experiment [5], this molecule gave an IC50 of 730 nM. In the case of `COC(=O)c1cc2cc(S(C)(=O)=O)ccc2n1Cc1ccc([N+](=O)[O-])cc1`, the inhibition in experiment [1] is 0%.
